From PMC10317875, “PET imaging of PARP expression using ^68Ga-labelled inhibitors” (European Journal of Nuclear Medicine and Molecular Imaging, 2023)

Columns and labels:
[1] = Partition coefficient log D7.4 (octanol/PBS); format: physicochemical; conditions: PBS (pH = 7.4)/octanol = 1/1
Procedure: Log D7.4: Similarly, approximately 74–185 kBq of the ^68Ga-labelled radiotracer was combined with a solvent mixture (2 mL, PBS (pH = 7.4)/octanol = 1/1). The partition coefficient experiment was repeated, as mentioned previously.

[2] = system: SK-OV-3 and A549 cells; test: Cell uptake of radiotracers in SK-OV-3 and A549 cells; format: cell-based; conditions: 2 h incubation at 37 °C
Procedure: SK-OV-3 and A549 cells were seeded in 6-well plates (500 × 10^3/well) for 24 h. Then, the cells were incubated separately with the three ^68Ga-labelled radiotracers (740 kBq/1 mL in each well) at 37 °C. To eliminate unbound ^68Ga-labelled radiotracers, the cells were rinsed three times with PBS (0.5 mL) 2 h after incubation. Cell suspensions were produced after adding pancreatin (0.5–0.8 mL). Finally, a γ-counter was used to measure the radioactivity. The radioactivity data are presented as CPM (counts per minute) with time-decay correction. Three replicate experiments were conducted.

[3] = system: SK-OV-3 models; test: MicroPET/CT imaging of SK-OV-3 models; format: in vivo, BALB/c nude mice
Procedure: (§1) Female BALB/c nude mice (6–8 weeks old) were utilized in all tumor-bearing mouse experiments. Twelve BALB/c nude mice were subcutaneously injected with SK-OV-3 cells (1 × 10^6) into the right armpit. The mice were used for investigation after the tumor diameter reached approximately 0.5–1.1 cm.
Six SK-OV-3 models were separated into two groups (^68Ga-labelled radiotracers and blocked groups). The ^68Ga-labelled radiotracers (2.96–5.55 MBq in 200 μL of saline) were administered via tail vein injection. Approximately 5 min before PET acquisition, the mice were anaesthetized by inhalation of a mixture of isoflurane and positioned in the scanner. The PET data for each mouse were acquired at 0.5, 1, and 2 h after injection. In the blocking studies, ^68 Ga-DOTA-Olaparib was injected with a 500-fold excess of Olaparib (562.68 μg) in 200 μL of a solution consisting of 75% saline and 25% DMSO (dimethyl sulfoxide). PET acquisition was performed at 1 h postinjection. The target tissue’s radioactivity content was measured, and the tissue-associated activity was expressed as %ID/g.

[4] = Pharmacokinetics (blood clearance) in normal mice; format: in vivo; conditions: tail vein injection, blood radioactivity
Procedure: The pharmacokinetic parameters of the three ^68Ga-labelled radiotracers were evaluated in normal mice. The three ^68Ga-labelled radiotracers were injected into mice via the tail veins at a dose of 1.48–2.96 MBq/mouse in approximately 200 μL. Blood samples were obtained via the tail vein using tared capillary tubes at 1, 3, 5, 10, 15, 30, 60, 120, and 180 min after radiotracer injection. The blood volume drawn was approximately 0.5–0.8 dispense capillary volumes at each time point. Dispense capillary tube was from Shanghai Great Wall Scientific Instruments Store (size: 0.5 × 100; diameter: 0.5 mm; length: 100 mm). The radioactivity was determined with a γ-counter and decay-corrected to the injection time. All samples were weighed. The radioactive CPM (counts per minute) by dividing by the mass of blood in the capillary are presented as %ID/g. Finally, the pharmacokinetic parameters were analysed by GraphPad Prism 9.0.

[5] = Partition coefficient log P (octanol/ultrapure water); format: physicochemical; conditions: ultrapure water/octanol = 1/1
Procedure: Log P: Generally, approximately 74–185 kBq of the ^68Ga-labelled radiotracer was combined with a solvent mixture (2 mL, ultrapure water/octanol = 1/1). After 5 min of agitation in a vortex mixer, the aqueous and nonaqueous phases were separated by centrifugation at 15000 g. The radioactivity of each sampling layer (100 μL) was measured using a γ-counter. The trial was conducted five times.

[6] = Plasma protein binding (ultrafiltration); format: in vitro ADME; conditions: mouse plasma
Procedure: To evaluate the plasma protein binding of the ^68Ga-labelled radiotracers, mouse blood from the heart was centrifuged at 4000 g for 5 min. The upper layer of blood was transferred to an EP tube and stored overnight in a refrigerator at 4 °C.
One hundred microliters of the ^68Ga-labelled radiotracer solution (0.74–1.48 MBq) was incubated with 100 μL of the above plasma. After 0.5, 1, and 2 h of incubation, the mixture was centrifuged at 15000 g for 10 min in a 30 K ultrafiltration tube. The radioactivity of the membrane and eluate was detected with a γ-counter. The radioactivity from the membrane, representing the tracer bound to plasma proteins, was estimated as a proportion of the total radioactivity of the sample. The experiment was repeated in triplicate.

[7] = system: SK-OV-3 models; test: Ex vivo biodistribution in SK-OV-3 models; design: species or system BALB/c nude mice
Procedure: as §1
(§2) Biodistribution experiments were conducted with SK-OV-3 models (10–12 weeks old, n = 3). ^68Ga-DOTA-Olaparib (1.85–5.55 MBq of ^68Ga-DOTA-Olaparib in 200 μL of saline) was administered via the lateral tail vein. After allowing the medication to circulate for varying amounts of time (0.5, 1, and 2 h), three mice were sacrificed. The tissue radioactivity (tumor, blood, muscle, bone, liver, spleen, kidney, heart, lung, bladder, brain, small intestine, and stomach) was measured using a γ-counter. The organs were weighed, and the γ-counter activity readings were decay-corrected to the injection time. Finally, the associated tissue activity was calculated by GraphPad Prism 9.0, and the data are expressed as %ID/g.
To verify specific tumor accumulation, ^68Ga-DOTA-Olaparib was administered with a 500-fold excess of Olaparib (530.94 μg) in 200 μL of a solution containing 75% saline and 25% DMSO via the lateral tail vein. After 1 h, mice (n = 3) were sacrificed to collect the tissues of interest. The associated tissue activity was measured as described above.

[8] = system: A549 models; test: Ex vivo biodistribution in A549 models; design: species or system mice; conditions: 1 h
Procedure: as §2, with “To further compare and validate the specific uptake of ^68Ga-DOTA-Olaparib in different tumor models, biodistribution” for “Biodistribution”, “A549” for “SK-OV-3”, “(1.22–5.59” for “(1.85–5.55”

[9] = Ex vivo biodistribution in normal mice; conditions: 5-180 min after injection
Procedure: Normal mice (6–8 weeks old, n = 5) were utilized in the biodistribution experiments. ^68Ga-DOTA-Olaparib (0.74–2.96 MBq of 200 μL of saline) was administered via the lateral tail vein. The medication was allowed to circulate for 5, 15, 30, 60, 120, and 180 min before the mice were sacrificed. The radioactivity in the target tissues (blood, muscle, bone, liver, spleen, kidney, heart, lung, bladder, brain, small intestine, and stomach) was measured using a γ-counter. The organs were weighed, and the γ-counter activity readings were decay-corrected to the injection time. The corresponding tissue activity was then assessed using GraphPad Prism 9.0, and the data are presented as %ID/g using the following formula: [(activity in the target organ/target organ quality)/injected dose] * 100%.

[10] = system: PARP-1 in SK-OV-3 cells; test: In vitro cell localization, FL-Olaparib confocal fluorescence with competition; conditions: FL-Olaparib 250 nM, presaturation with 1000-fold molar excess of competitor
[11] = molecular target: T1, PARP-1 protein (human, Recombinant (His Tag)) (Homo sapiens, UniProt P09874); test: Surface plasmon resonance (SPR) binding assay; conditions: SPR imaging
T1 construct: His tag; purchased Sino Biological 11,040-H08B
Procedure: Furthermore, the compound Olaparib was used as a reference for affinity. The surface plasmon resonance binding assays were conducted according to the previous protocol.

Row | log Doctanol/PBS [1] | tumor uptake (PET/CT) ([3]; 0.5 h after injection) | tumor uptake (PET/CT) ([3]; 1 h after injection) | tumor uptake (PET/CT) ([3]; 2 h after injection) | clear-phase half-life (t1/2β) [4] | distribution-phase half-life (t1/2α) [4] | log Poctanol/water [5] | plasma protein binding ([6]; 0.5 h) | plasma protein binding ([6]; 1 h) | plasma protein binding ([6]; 2 h) | SMILES | SK-OV-3/A549 uptake ratio [2] | further results
1 | -1.75 ± 0.11 | 0.96 ± 0.13 %ID/g | 0.57 ± 0.068 %ID/g | 0.91 ± 0.11 %ID/g | 23.19 min | 0.40 min | -1.62 ± 0.075 | 39.32 ± 1.89% | 43.08 ± 7.20% | 43.56 ± 5.24% | O=C([O-])CN1CCN(CC(=O)O)CCN(CC(=O)[O-])CCN(CC(=O)NCC(=O)NCC(=O)NCC(=O)N2CCN(C(=O)c3cc(Cc4n[nH]c(=O)c5ccccc45)ccc3F)CC2)CC1.[68Ga+3] [68Ga-DOTA-(Gly)3-Olaparib] | 1.63 ± 0.13 | 
2 | -2.49 ± 0.15 | 0.96 ± 0.14 %ID/g | 0.56 ± 0.12 %ID/g | 0.98 ± 0.53 %ID/g | 47.69 min | 0.31 min | -2.16 ± 0.12 | 59.62 ± 2.40% | 83.84 ± 1.42% | 58.13 ± 6.63% | O=C([O-])CN1CCN(CC(=O)O)CCN(CC(=O)[O-])CCN(CC(=O)NCCCC(=O)N2CCN(C(=O)c3cc(Cc4n[nH]c(=O)c5ccccc45)ccc3F)CC2)CC1.[68Ga+3] [68Ga-DOTA-GABA-Olaparib] | 2.43 ± 0.45 | 
3 | -2.56 ± 0.026 |  | ~2.37 ± 0.37 %ID/g | ~2.27 ± 0.32 %ID/g | 22.82 min | 1.97 min | -2.33 ± 0.028 | 20.59 ± 1.23% | 32.85 ± 4.11% | 24.04 ± 0.80% | O=C([O-])CN1CCN(CC(=O)O)CCN(CC(=O)[O-])CCN(CC(=O)N2CCN(C(=O)c3cc(Cc4n[nH]c(=O)c5ccccc45)ccc3F)CC2)CC1.[68Ga+3] [68Ga-DOTA-Olaparib] | 1.47 ± 0.019 | tumor/intestine ratio ([7]; 1 h after administration): 2.05 ± 0.072; tumor/stomach ratio ([7]; 1 h after administration): 2.97 ± 0.73; T/M ratio (ex vivo biodistribution) ([7]; 2 h): 12.64 ± 1.32; tumor-to-bone ratio (ex vivo biodistribution) ([7]; 2 h): 3.85 ± 0.68; tumor-to-brain ratio (ex vivo biodistribution) ([7]; 2 h): 15.63 ± 1.58; bladder accumulation ([7]; SK-OV-3 models, 0.5 h): 5.80 ± 1.47 %ID/g; kidneys accumulation ([7]; SK-OV-3 models, 0.5 h): 3.11 ± 0.29 %ID/g; bladder accumulation ([7]; SK-OV-3 models, 1 h): 2.57 ± 0.72 %ID/g; kidneys accumulation ([7]; SK-OV-3 models, 1 h): 4.24 ± 0.22 %ID/g; tumor radioactivity (ex vivo biodistribution), blocked ([7]; SK-OV-3 models, 1 h, 500-fold excess of Olaparib): 0.25 ± 0.027 %ID/g; tumor radioactivity (ex vivo biodistribution) ([7]; SK-OV-3 models, 1 h postinjection): 1.26 ± 0.17 %ID/g; bladder accumulation ([7]; SK-OV-3 models, 2 h): 0.064 ± 0.025 %ID/g; kidneys accumulation ([7]; SK-OV-3 models, 2 h): 2.51 ± 0.33 %ID/g; T/M (tumor-to-muscle) ratio (PET/CT) ([3]; 0.5 h): approximately 3.54 ± 0.74; T/M (tumor-to-muscle) ratio (PET/CT), blocked ([3]; 1 h, blocked with a 500-fold excess of Olaparib): 1.79 ± 0.26; T/M (tumor-to-muscle) ratio (PET/CT) ([3]; 1 h, unblocked): ~4.07 ± 0.59; T/M (tumor-to-muscle) ratio (PET/CT) ([3]; 2 h): ~7.31 ± 0.51; tumor uptake (ex vivo biodistribution) [8]: 0.43 ± 0.10 %ID/g; order of clearance from the body [9]: kidney-bladder-urine
4 |  |  |  |  |  |  |  |  |  |  | O=C(O)CN1CCN(CC(=O)O)CCN(CC(=O)N2CCN(C(=O)c3cc(Cc4n[nH]c(=O)c5ccccc45)ccc3F)CC2)CCN(CC(=O)O)CC1 [DOTA-Olaparib] |  | effect on FL-Olaparib fluorescence signals [10]: substantial reduction in fluorescence signals; Kd [11]: 14.5 nM
